{"source": "patent US9932333B2", "about": "“Benzothiazole compound and medicine containing same” (JAPAN SCIENCE AND TECHNOLOGY AGENCY, priority 2014, dated 2018)", "key": {"angiotensin IV": {"biological_target": "angiotensin IV (Homo sapiens, UniProt P01019)", "experiment": "Selectivity of oxygenation reaction, angiotensin IV (Example 4)", "assay_type": "biochemical", "set-up": "unit not given here", "conditions": "compound (1a) 20 mmol %, light 1 hour, 37° C.", "text": "Then, the reaction was monitored with a mass spectrometer (MALDI-TOF MS) or LC/MS (ESI-Q)."}, "aggregated Aβ1-42": {"biological_target": "aggregated Aβ1-42 (Homo sapiens, UniProt P05067)", "sequence (P05067 672-713 limits assumed)": "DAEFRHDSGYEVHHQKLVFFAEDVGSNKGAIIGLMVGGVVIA", "experiment": "Binding to aggregated Aβ1-42 by fluorescence assay (Example 5)", "conditions": "10 μM; Aβ1-42 incubated 0, 1, 3, 6 hours", "procedure": "(2) Compound (1a) (10 μM) was added to each of solutions containing 4 types of aggregated Aβ1-42 (0.5 μM) prepared by the incubation of Aβ1-42 (20 μM) in a phosphate buffer solution (10 mM, pH 7.4) at 37° C. for 0, 1, 3, and 6 hours, respectively, followed by the measurement of the fluorescence intensity of compound (1a)."}, "Aβ1-42 oligomers [1]": {"biological_target": "T1, Aβ1-42 oligomers (Homo sapiens, UniProt P05067)", "T1 sequence (P05067 672-713 limits assumed)": "as above", "experiment": "Binding to Aβ1-42 oligomer by fluorescence assay (Example 6)", "conditions": "10 μM; oligomers prepared at 0° C. and room temperature, 24 hours", "procedure": "(2) Compound (1a) (10 μM) was added to each of solutions containing two types of Aβ1-42 oligomers (0.5 μM) prepared by the incubation of Aβ1-42 (20 μM) in a phosphate buffer solution (10 mM, pH 7.4) at 0° C. and room temperature, respectively, for 24 hours, followed by the measurement of the fluorescence intensity of compound (1a)."}, "Aβ1-42 oligomers [2]": {"biological_target": "T1, Aβ1-42 oligomers", "experiment": "Aggregability of oxygenized Aβ1-42 oligomer (Nile Red, atomic force microscopy)", "assay_type": "biochemical", "conditions": "compared with native", "procedure": "(4) Compound (1a) (4 μM) was added to each of solutions containing two types of Aβ1-42 oligomers (0.5 μM) prepared by the incubation of Aβ1-42 (20 μM) in a phosphate buffer solution (10 mM, pH 7.4) at 0° C. and room temperature, respectively, for 24 hours, and the mixture was incubated at room temperature for 1 hour under irradiation with LED (wavelength: 500 nm). Then, each solution was incubated at 37° C., and Nile Red was added thereto, followed by the measurement of its fluorescence intensity. The sample incubated for 6 hours was also analyzed for its shape by atomic force microscopy. A non-oxygenized Aβ1-42 oligomer (native) was prepared without light irradiation."}}, "data": [{"smiles": "C[n+]1c(-c2cc3c4c(c2)CCCN4CCC3)sc2cc(Br)ccc21", "note": "[1a]", "values": [{"measurement": "generation of an oxygenated form of angiotensin IV", "setting": "angiotensin IV", "result": "≤ 2"}, {"measurement": "binding to aggregated Aβ1-42 (fluorescence intensity)", "setting": "aggregated Aβ1-42", "result": "bind to the cross-β-sheet structure of aggregated Aβ1-42"}, {"measurement": "binding to Aβ1-42 oligomer (fluorescence)", "setting": "Aβ1-42 oligomers [1]", "result": "binds to the Aβ1-42 oligomer"}, {"measurement": "increase in cross-β structure of Aβ1-42 oligomer (Nile Red fluorescence)", "setting": "Aβ1-42 oligomers [2]; 4 μM, light 1 hour, then 37° C.", "result": "suppress increase in the cross-β structure of the Aβ1-42 oligomer"}, {"measurement": "fibril formation of Aβ1-42 oligomer (atomic force microscopy)", "setting": "Aβ1-42 oligomers [2]; incubated for 6 hours", "result": "similarly suppressed"}]}]}
